The numbers were not newly measured in PubChem BioAssay AID1259409 (Chemical Carcinogenesis Research Information System (CCRIS), 2018), which cites them from elsewhere.

Each structure is given as a SMILES string.

The data set has as its system rodent chemically induced tumor inhibition, incidence and multiplicity. Put plainly: CCRIS tumor inhibitor studies.

For `CCCCOC(=O)c1ccccc1C(=O)OCc1ccccc1`, the “tumour outcome (control, treated, inhibition, significance)” value is 82%, 52%, 37%, p<0.05 (Carcinogen: 7,12-DIMETHYLBENZ[A]ANTHRACENE, 57-97-6, Dose [Inhibitor]: 0, 250 MG/KG IN CORN OIL 1/D FOR 7 D PRIOR TO CARCINOGEN DOSE (STUDY DURATION: 16 WK), Route [Inhibitor]: GAVAGE, Species: RAT, Strain/Sex: ?/FEMALE, Target Tissue: Type of Lesion: MAMMARY GLAND: TUMOR, Dose [Carcinogen]: 31 MG/KG IN CORN OIL ONCE, Promoter: NONE USED) and 82%, 52%, 37%, p<0.05 (Carcinogen: 7,12-DIMETHYLBENZ[A]ANTHRACENE, 57-97-6, Dose [Inhibitor]: 0, 500 MG/KG IN CORN OIL 1/D FOR 7 D PRIOR TO CARCINOGEN DOSE (STUDY DURATION: 16 WK), Route [Inhibitor]: GAVAGE, Species: RAT, Strain/Sex: ?/FEMALE, Target Tissue: Type of Lesion: MAMMARY GLAND: TUMOR, Dose [Carcinogen]: 31 MG/KG IN CORN OIL ONCE, Promoter: NONE USED).
Consider `CCCCC(C)N=C=S` (stereo not drawn), for which the “tumour outcome (control, treated, inhibition, significance)” value by setting is: (Carcinogen: 4-(METHYLNITROSAMINO)-1-(3-PYRIDYL)-1-BUTANONE, 64091-91-4, Dose [Inhibitor]: 0, 1 UMOL ONCE 2 HR PRIOR TO CARCINOGEN DOSE (STUDY DURATION: 16 WK), Route [Inhibitor]: GAVAGE, Species: MOUSE, Strain/Sex: STRAIN-A/FEMALE, Target Tissue: Type of Lesion: LUNG: ADENOMA, Dose [Carcinogen]: 10 UMOL IN 0.1 ML SALINE ONCE, Promoter: NONE USED) 100%, 70%, 30%, p<0.05; (Carcinogen: 4-(METHYLNITROSAMINO)-1-(3-PYRIDYL)-1-BUTANONE, 64091-91-4, Dose [Inhibitor]: 0, 5 UMOL ONCE 2 HR PRIOR TO CARCINOGEN DOSE (STUDY DURATION: 16 WK), Route [Inhibitor]: GAVAGE, Species: MOUSE, Strain/Sex: STRAIN-A/FEMALE, Target Tissue: Type of Lesion: LUNG: ADENOMA, Dose [Carcinogen]: 10 UMOL IN 0.1 ML SALINE ONCE, Promoter: NONE USED) 100%, 30%, 70%, p<0.05.
As to `CCCCCCCCCCCCC/C=C/[C@@H](O)[C@@H](N)CO`, the “tumour outcome (control, treated, inhibition, significance)” value is 87%, 77%, 11%, not significant (Carcinogen: 7,12-DIMETHYLBENZ[A]ANTHRACENE, 57-97-6, Dose [Inhibitor]: 0, 0.01 UMOL IN 0.2 ML ACETONE 2/WK FOR 15 WK APPLIED 30 MIN PRIOR TO EACH PROMOTER DOSE (STUDY DURATION: 50 WK), Route [Inhibitor]: DERMAL, Species: MOUSE, Strain/Sex: SENCAR/FEMALE, Target Tissue: Type of Lesion: SKIN: CARCINOMA, Dose [Carcinogen]: 10 NMOL ONCE, Promoter: 12-O-TETRADECANOYLPHORBOL-13-ACETATE, 16561-29-8); 94%, 88%, 6%, not significant (Carcinogen: 7,12-DIMETHYLBENZ[A]ANTHRACENE, 57-97-6, Dose [Inhibitor]: 0, 0.01 UMOL IN 0.2 ML ACETONE 2/WK FOR 15 WK APPLIED 30 MIN PRIOR TO EACH PROMOTER DOSE (STUDY DURATION: 50 WK), Route [Inhibitor]: DERMAL, Species: MOUSE, Strain/Sex: SENCAR/FEMALE, Target Tissue: Type of Lesion: SKIN: PAPILLOMA, Dose [Carcinogen]: 10 NMOL ONCE, Promoter: 12-O-TETRADECANOYLPHORBOL-13-ACETATE, 16561-29-8); 87%, 82%, 6%, not significant (Carcinogen: 7,12-DIMETHYLBENZ[A]ANTHRACENE, 57-97-6, Dose [Inhibitor]: 0, 0.05 UMOL IN 0.2 ML ACETONE 2/WK FOR 15 WK APPLIED 30 MIN PRIOR TO EACH PROMOTER DOSE (STUDY DURATION: 50 WK), Route [Inhibitor]: DERMAL, Species: MOUSE, Strain/Sex: SENCAR/FEMALE, Target Tissue: Type of Lesion: SKIN: CARCINOMA, Dose [Carcinogen]: 10 NMOL ONCE, Promoter: 12-O-TETRADECANOYLPHORBOL-13-ACETATE, 16561-29-8); 94%, 91%, 3%, not significant (Carcinogen: 7,12-DIMETHYLBENZ[A]ANTHRACENE, 57-97-6, Dose [Inhibitor]: 0, 0.05 UMOL IN 0.2 ML ACETONE 2/WK FOR 15 WK APPLIED 30 MIN PRIOR TO EACH PROMOTER DOSE (STUDY DURATION: 50 WK), Route [Inhibitor]: DERMAL, Species: MOUSE, Strain/Sex: SENCAR/FEMALE, Target Tissue: Type of Lesion: SKIN: PAPILLOMA, Dose [Carcinogen]: 10 NMOL ONCE, Promoter: 12-O-TETRADECANOYLPHORBOL-13-ACETATE, 16561-29-8); 87%, 84%, 3%, not significant (Carcinogen: 7,12-DIMETHYLBENZ[A]ANTHRACENE, 57-97-6, Dose [Inhibitor]: 0, 0.5 UMOL IN 0.2 ML ACETONE 2/WK FOR 15 WK APPLIED 30 MIN PRIOR TO EACH PROMOTER DOSE (STUDY DURATION: 50 WK), Route [Inhibitor]: DERMAL, Species: MOUSE, Strain/Sex: SENCAR/FEMALE, Target Tissue: Type of Lesion: SKIN: CARCINOMA, Dose [Carcinogen]: 10 NMOL ONCE, Promoter: 12-O-TETRADECANOYLPHORBOL-13-ACETATE, 16561-29-8); 94%, 85%, 10%, not significant (Carcinogen: 7,12-DIMETHYLBENZ[A]ANTHRACENE, 57-97-6, Dose [Inhibitor]: 0, 0.5 UMOL IN 0.2 ML ACETONE 2/WK FOR 15 WK APPLIED 30 MIN PRIOR TO EACH PROMOTER DOSE (STUDY DURATION: 50 WK), Route [Inhibitor]: DERMAL, Species: MOUSE, Strain/Sex: SENCAR/FEMALE, Target Tissue: Type of Lesion: SKIN: PAPILLOMA, Dose [Carcinogen]: 10 NMOL ONCE, Promoter: 12-O-TETRADECANOYLPHORBOL-13-ACETATE, 16561-29-8). Besides, the “tumour outcome (control, treated, inhibition, significance)” value is 47%, 56%, -19%, not significant (Carcinogen: 7,12-DIMETHYLBENZ[A]ANTHRACENE, 57-97-6, Dose [Inhibitor]: 0, 10 UMOL IN 0.2 ML ACETONE 2/WK FOR 20 WK APPLIED 30 MIN PRIOR TO EACH PROMOTER DOSE (STUDY DURATION: 50 WK), Route [Inhibitor]: DERMAL, Species: MOUSE, Strain/Sex: SENCAR/FEMALE, Target Tissue: Type of Lesion: SKIN: CARCINOMA, Dose [Carcinogen]: 10 NMOL ONCE, Promoter: 12-O-TETRADECANOYLPHORBOL-13-ACETATE, 16561-29-8) and 93%, 96%, -3%, not significant (Carcinogen: 7,12-DIMETHYLBENZ[A]ANTHRACENE, 57-97-6, Dose [Inhibitor]: 0, 10 UMOL IN 0.2 ML ACETONE 2/WK FOR 20 WK APPLIED 30 MIN PRIOR TO EACH PROMOTER DOSE (STUDY DURATION: 50 WK), Route [Inhibitor]: DERMAL, Species: MOUSE, Strain/Sex: SENCAR/FEMALE, Target Tissue: Type of Lesion: SKIN: PAPILLOMA, Dose [Carcinogen]: 10 NMOL ONCE, Promoter: 12-O-TETRADECANOYLPHORBOL-13-ACETATE, 16561-29-8).
On to `CC(O)C(=O)O` (stereo not drawn), for which the outcome (Carcinogen: 1,2-DIMETHYLHYDRAZINE, 540-73-8, Dose [Inhibitor]: 0, 3.2 G/L IN DRINKING WATER FOR DURATION OF STUDY (STUDY DURATION: 34 WK), Route [Inhibitor]: ORAL, Species: RAT, Strain/Sex: SPRAGUE-DAWLEY/MALE, FEMALE, Target Tissue: Type of Lesion: COLON: TUMOR, Dose [Carcinogen]: 21 MG/KG 1/WK FOR 18 WK, Promoter: NONE USED) is given as 28/29 (97%), 18/28 (64%), not calculated.
Turning to `Nc1nc(N)c2nc(CNc3ccc(C(=O)N[C@@H](CCC(=O)O)C(=O)O)cc3)cnc2n1`, the “tumour outcome (control, treated, inhibition, significance)” value reads like this: (Carcinogen: URETHANE, 51-79-6, Dose [Inhibitor]: 0.25 UG/G BW IN DISTILLED WATER 1/D FOR 3 D FOLLOWED BY 0.5 UG/G BW ONCE ADMINISTERED AT SAME TIME AS CARCINOGEN TREATME, Route [Inhibitor]: INTRAPERITONEAL, Species: MOUSE, Strain/Sex: SWR/MALE, Target Tissue: Type of Lesion: LUNG: ADENOMA, Dose [Carcinogen]: 0.5 MG/G BW IN DISTILLED WATER ONCE AT 13 WK OF AGE, Promoter: NONE USED) 90%, 74%, 18%, not significant; (Carcinogen: URETHANE, 51-79-6, Dose [Inhibitor]: 0.25 UG/G BW IN DISTILLED WATER 1/D FOR 3 D FOLLOWED BY 0.5 UG/G BW ONCE ADMINISTERED AT SAME TIME AS CARCINOGEN TREATME, Route [Inhibitor]: INTRAPERITONEAL, Species: MOUSE, Strain/Sex: SWR/MALE, Target Tissue: Type of Lesion: LUNG: ADENOMA, Dose [Carcinogen]: 0.5 MG/G BW IN DISTILLED WATER ONCE AT 15 WK OF AGE, Promoter: NONE USED) 82%, 90%, -10%, not significant.
As to `O=c1c(-c2ccc(O)cc2)coc2cc(O)ccc12`, the “tumour outcome (control, treated, inhibition, significance)” value runs as follows: (Carcinogen: 7,12-DIMETHYLBENZ[A]ANTHRACENE (57-97-6), Dose [Inhibitor]: 105 MG/KG DIET FOR 17 WKS (STUDY DURATION: 17 WKS), Route [Inhibitor]: DIET, Species: RAT, Strain/Sex: SPRAGUE-DAWLEY/FEMALE (20,18)/(20,19), Target Tissue: Type of Lesion: MAMMARY, Dose [Carcinogen]: 12.5 MG ONCE 1 WK AFTER START OF DIET (STUDY DURATION: 17 WKS)) 95%, 85%, 11%, p=0.366; (Carcinogen: N-METHYL-N-NITROSOUREA, 684-93-5, Dose [Inhibitor]: 0, 1 MG/30 G BW 1/4 WK FOR 25 WK BEGINNING 5 WK POST CARCINOGEN TREATMENT (STUDY DURATION: 30 WK), Route [Inhibitor]: SUBCUTANEOUS, Species: MOUSE, Strain/Sex: ICR/FEMALE, Target Tissue: Type of Lesion: UTERUS (LEFT): ADENOCARCINOMA, Dose [Carcinogen]: 0.1 MG/KG BW INJECTED INTO LEFT UTERINE TUBE ONCE) 3/26 (11%), 0/14 (0%), 100%, not significant; (Carcinogen: N-METHYL-N-NITROSOUREA, 684-93-5, Dose [Inhibitor]: 0, 1 MG/30 G BW 1/4 WK FOR 25 WK BEGINNING 5 WK POST CARCINOGEN TREATMENT (STUDY DURATION: 30 WK), Route [Inhibitor]: SUBCUTANEOUS, Species: MOUSE, Strain/Sex: ICR/FEMALE, Target Tissue: Type of Lesion: UTERUS (LEFT): ADENOCARCINOMA, Dose [Carcinogen]: 0.1 MG/KG BW INJECTED INTO LEFT UTERINE TUBE ONCE, Promoter: 17-BETA-ESTRADIOL, 50-28-2) 8/24 (33%), 1/23 (4%), 87%, p<0.05.
